Data published in the supplement of paper PMC4862054.
“And” between values parts separate entries of the source, which are not always exact repeats. Equal entries are not always repeated. Each block holds one molecule with its values, some of them ahead of it.

Columns and labels:
[1] = test system: DU-4475; assay: normalised viability (% of control), CellTiter-Blue; higher = more viable cells (about 100 = DMSO control); settings: incubation time: 72 h
Experimental: (§1)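 DSRT, CellTiter-Blue viability, 72 h incubation. Signal is normalised to DMSO and benzethonium chloride controls. Value is the normalised response at dose 8.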

[2] = test system: CAL-51; assay: as above; settings: incubation time: 72 h
Experimental: as §1

[3] = test system: CAL-148; assay: as above; settings: incubation time: 72 h
Experimental: as §1

[4] = test system: HDQ-P1; assay: as above; settings: incubation time: 72 h
Experimental: as §1

[5] = test system: CAL-85-1; assay: as above; settings: incubation time: 72 h
Experimental: as §1

[6] = test system: MDA-MB-453; assay: as above; settings: incubation time: 72 h
Experimental: as §1

[7] = test system: DU-4475; assay: as above; settings: incubation time: 72 h; remark: listed apart in the source
Experimental: (§2)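 DSRT, CellTiter-Blue viability, 72 h incubation. Signal is normalised to DMSO and benzethonium chloride controls. Value is the normalised response at dose 7.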

[8] = test system: CAL-51; assay: as above; settings: incubation time: 72 h; remark: listed apart in the source
Experimental: as §2

[9] = test system: CAL-148; assay: as above; settings: incubation time: 72 h; remark: listed apart in the source
Experimental: as §2

[10] = test system: HDQ-P1; assay: as above; settings: incubation time: 72 h; remark: listed apart in the source
Experimental: as §2

[11] = test system: CAL-85-1; assay: as above; settings: incubation time: 72 h; remark: listed apart in the source
Experimental: as §2

[12] = test system: MDA-MB-453; assay: as above; settings: incubation time: 72 h; remark: listed apart in the source
Experimental: as §2

[13] = test system: CAL-51; settings: 72 h
Procedure, shortened: (§3)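 A 20 µl suspension of breast cancer cells was placed in 384-well plates that already contained compound at 5 concentrations in 10-fold steps across a compound-specific 10,000-fold range, and the plates were left for 72 h. CellTox Green fluorescence at 485/520 nm gave cell death, and CellTiter-Glo luminescence, read after 10 min at room temperature, gave viability. Each plate was normalised to 0.1 % DMSO and a positive kill control. EC50 was fitted from the curves and censored at the top concentration.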

[14] = test system: MDA-MB-453; settings: 72 h
Procedure, shortened: as §3

[15] = test system: DU-4475; assay: normalised viability (% of control), CellTiter-Blue; higher = more viable cells (100 = DMSO, 0 = benzethonium chloride kill control); settings: incubation time: 72 h
Experimental: (§4)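 DSRT, CellTiter-Blue viability, 72 h incubation. Signal is normalised to DMSO and benzethonium chloride controls. Value is the normalised response at dose 1.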

[16] = test system: HCC1937; assay: as above; settings: incubation time: 72 h
Experimental: as §4

[17] = test system: CAL-51; assay: as above; settings: incubation time: 72 h
Experimental: as §4

[18] = test system: MFM-223; assay: as above; settings: incubation time: 72 h
Experimental: as §4

[19] = test system: BT-549; assay: as above; settings: incubation time: 72 h
Experimental: as §4

[20] = test system: Hs578T; assay: as above; settings: incubation time: 72 h
Experimental: as §4

[21] = test system: MDA-MB-468; assay: as above; settings: incubation time: 72 h
Experimental: as §4

[22] = test system: CAL-120; assay: as above; settings: incubation time: 72 h
Experimental: as §4

[23] = test system: SK-BR-3; assay: as above; settings: incubation time: 72 h
Experimental: as §4

[24] = test system: HCC1599; assay: as above; settings: incubation time: 72 h
Experimental: as §4

[25] = test system: HDQ-P1; assay: as above; settings: incubation time: 72 h
Experimental: as §4

[26] = test system: MCF-10A; settings: 72 h
Procedure, shortened: as §3

[27] = test system: BT-549; settings: 72 h
Procedure, shortened: as §3

[28] = test system: Hs578T; settings: 72 h
Procedure, shortened: as §3

[29] = test system: CAL-85-1; settings: 72 h
Procedure, shortened: as §3

[30] = test system: CAL-120; settings: 72 h
Procedure, shortened: as §3

[31] = test system: MDA-MB-231; settings: 72 h
Procedure, shortened: as §3

[32] = test system: HCC1937; settings: 72 h
Procedure, shortened: as §3

[33] = test system: BT-474; settings: 72 h
Procedure, shortened: as §3

[34] = test system: MDA-MB-436; settings: 72 h
Procedure, shortened: as §3

[35] = test system: MDA-MB-468; settings: 72 h
Procedure, shortened: as §3

[36] = test system: SK-BR-3; settings: 72 h
Procedure, shortened: as §3

EC50, CellTiter-Glo [14]: > 10000 nM
Structure (SMILES): Cc1ccc(NC(=O)c2ccc(CN3CCN(C)CC3)cc2)cc1Nc1nccc(-c2cccnc2)n1 [Imatinib]
normalised viability ([1]; 3000 nM): 112% and 116% | normalised viability ([2]; 3000 nM): 108% and 98.6% | normalised viability ([3]; 3000 nM): 102% and 90.9% | normalised viability ([4]; 3000 nM): 118% and 119% | normalised viability ([5]; 3000 nM): 96.1% and 95.3% | normalised viability ([6]; 3000 nM): 86.2% and 83.6% | normalised viability ([7]; 1000 nM): 115% and 108% | normalised viability ([8]; 1000 nM): 106% and 102% | normalised viability ([9]; 1000 nM): 82.7% and 100% | normalised viability ([10]; 1000 nM): 106% and 122% | normalised viability ([11]; 1000 nM): 92.6% and 82.5% | normalised viability ([12]; 1000 nM): 110% and 92.5% | EC50, CellTiter-Glo [13]: 4170 nM | normalised viability ([15]; 1 nM): 99% and 111% | normalised viability ([16]; 1 nM): 81.9% and 101% | normalised viability ([17]; 1 nM): 99.8% and 100% | normalised viability ([18]; 1 nM): 93.1% and 97.1% | normalised viability ([19]; 1 nM): 104% and 116% | normalised viability ([20]; 1 nM): 99.3% and 102% | normalised viability ([21]; 1 nM): 102% and 105% | normalised viability ([22]; 1 nM): 88.5% and 91% | normalised viability ([23]; 1 nM): 89.3% and 102% | normalised viability ([24]; 1 nM): 109% and 104%

EC50, CellTiter-Glo [32]: 2940 nM | EC50, CellTiter-Glo [33]: 769 nM | EC50, CellTiter-Glo [34]: 294 nM | EC50, CellTiter-Glo [27]: 168 nM | EC50, CellTiter-Glo [35]: 68.5 nM | EC50, CellTiter-Glo [14]: 780 nM | EC50, CellTiter-Glo [36]: 25.7 nM | EC50, CellTiter-Glo [31]: 953 nM
Structure (SMILES): NS(=O)(=O)OC[C@@H]1C[C@@H](n2ccc3c(N[C@H]4CCc5ccccc54)ncnc32)C[C@@H]1O [Pevonedistat]
EC50, CellTiter-Glo [13]: 91.2 nM | EC50, CellTiter-Glo [28]: 679 nM | EC50, CellTiter-Glo [29]: 191 nM | EC50, CellTiter-Glo [30]: 448 nM

Further lines, the molecule ahead of its results:

Structure (SMILES): Cn1c(=O)n(-c2ccc(C(C)(C)C#N)cc2)c2c3cc(-c4cnc5ccccc5c4)ccc3ncc21 [NVP-BEZ235]
normalised viability ([1]; 300 nM): 15.8% | normalised viability ([2]; 300 nM): 12.4% | normalised viability ([3]; 300 nM): 10.7% | normalised viability ([4]; 300 nM): 26.5% | normalised viability ([5]; 300 nM): 29.5% | normalised viability ([6]; 300 nM): 12.6% | normalised viability ([7]; 100 nM): 37.2% | normalised viability ([8]; 100 nM): 22.3% | normalised viability ([9]; 100 nM): 16.1% | normalised viability ([10]; 100 nM): 38.3% | normalised viability ([11]; 100 nM): 31.4% | normalised viability ([12]; 100 nM): 16.8% | normalised viability ([15]; 0.1 nM): 129% | normalised viability ([16]; 0.1 nM): 95.9% | normalised viability ([17]; 0.1 nM): 102% | normalised viability ([18]; 0.1 nM): 99.3% | normalised viability ([19]; 0.1 nM): 112% | normalised viability ([25]; 0.1 nM): 113% | normalised viability ([20]; 0.1 nM): 105% | normalised viability ([21]; 0.1 nM): 108% | normalised viability ([22]; 0.1 nM): 96.6% | normalised viability ([23]; 0.1 nM): 100% | normalised viability ([24]; 0.1 nM): 125%

Structure (SMILES): COc1ccccc1S(=O)(=O)Nc1ccc2c(c1)CN(C)C(=O)N2 [PFI-1]
EC50, CellTiter-Glo [13]: 6310 nM | EC50, CellTiter-Glo [26]: 4160 nM | EC50, CellTiter-Glo [27]: 1350 nM | EC50, CellTiter-Glo [28]: 1810 nM | EC50, CellTiter-Glo [29]: 8460 nM | EC50, CellTiter-Glo [30]: 2570 nM | EC50, CellTiter-Glo [14]: 1980 nM | EC50, CellTiter-Glo [31]: 1610 nM

Structure (SMILES): CNNCc1ccc(C(=O)NC(C)C)cc1 [Procarbazine]
normalised viability ([1]; 3000 nM): 100% | normalised viability ([2]; 3000 nM): 98.8% | normalised viability ([3]; 3000 nM): 101% | normalised viability ([4]; 3000 nM): 127% | normalised viability ([5]; 3000 nM): 95.7% | normalised viability ([6]; 3000 nM): 102% | normalised viability ([7]; 1000 nM): 105% | normalised viability ([8]; 1000 nM): 100% | normalised viability ([9]; 1000 nM): 87.9% | normalised viability ([10]; 1000 nM): 95.7% | normalised viability ([11]; 1000 nM): 89.2% | normalised viability ([12]; 1000 nM): 113% | normalised viability ([15]; 1 nM): 110% | normalised viability ([16]; 1 nM): 78.9% | normalised viability ([17]; 1 nM): 100% | normalised viability ([18]; 1 nM): 102% | normalised viability ([19]; 1 nM): 113% | normalised viability ([25]; 1 nM): 120% | normalised viability ([20]; 1 nM): 107% | normalised viability ([21]; 1 nM): 104% | normalised viability ([22]; 1 nM): 97% | normalised viability ([23]; 1 nM): 106% | normalised viability ([24]; 1 nM): 84.6%
